Laboratory results as given in patent US12065446B2, “Inhibitors of Bruton's tyrosine kinase and method of their use” (JANSSEN PHARMACEUTICA NV, priority 2015, dated 2024).

Target: unphosphorylated-BTK kinase domain (UP-BTK), GST-tagged human BTK (389-659aa) (Homo sapiens (Human), UniProt Q06187)
Assay: BTK kinase lanthascreen binding assay
Details: competition with 50 nM Tracer 236, 60 minutes; pIC50 = negative log of the IC50 in molar
Procedure: BTK kinase lanthascreen binding assay: A BTK kinase lanthascreen binding assay monitors compound binding to unphosphorylated-BTK kinase domain (UP-BTK), by competing with a fluorescent labeled tracer. […] Data were analyzed using Xlfit™ version 5.3 from ID Business Solutions (Guildford), Microsoft Excel add-in. pIC50 refers to the negative log of the IC50 in molar.

unphosphorylated-BTK kinase domain (UP-BTK), GST-tagged human BTK (389-659aa), sequence (Q06187 389-659): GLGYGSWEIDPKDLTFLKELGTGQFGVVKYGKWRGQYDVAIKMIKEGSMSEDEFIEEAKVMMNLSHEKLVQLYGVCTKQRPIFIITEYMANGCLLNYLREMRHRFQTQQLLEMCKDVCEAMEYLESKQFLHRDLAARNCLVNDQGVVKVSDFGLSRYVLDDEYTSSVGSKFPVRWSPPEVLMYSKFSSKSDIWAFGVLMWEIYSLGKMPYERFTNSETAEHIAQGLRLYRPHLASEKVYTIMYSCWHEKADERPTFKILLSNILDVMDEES

BTK_I_binding pIC50: 7.11
Structure (SMILES): C=CC(=O)N[C@@H]1CC[C@@H](NC(=O)c2sc3nccc4c3c2NC(=O)N4c2ccc(Oc3ccccc3)nc2)C1 (racemic) [Example 188, N-((1RS, 3RS)-3-Acrylamidocyclopentyl)-4-oxo-5-(6-phenoxypyridin-3-yl)-4,5-dihydro-3H-1-thia-3,5,8-triazaacenaphthylene-2-carboxamide]
